Results as given in patent publication US20240165066A1, “LYMPH-RELEASING COMPOSITIONS OF FATTY ACIDS AND USES THEREOF FOR LYMPHATIC INCORPORATION AND SYSTEMIC DISEASE TREATMENT” (Amarin Pharmaceuticals Ireland Limited, priority 2022, published 2024).

Experiments:
Assay type in all cases: cell-based
[1] = tested on: Primary human lung microvascular endothelial cells (HMVEC-Ls, PECs); experiment: LC/MS proteomics of pulmonary endothelial cells exposed to air pollution particulate matter
Protocol: Primary human lung microvascular endothelial cells (HMVEC-Ls, PECs) were purchased from Lonza (Manassas, VA). Cells were cultured in complete endothelial cell growth medium and maintained at 37° C. in a 95% air/5% CO2 humidified incubator. Cells were supplied with fresh medium every other day and propagated by an enzymatic (trypsin) procedure. Cell culture medium also contained 2% FBS to facilitate fatty acid treatment.
EPA was purchased from Sigma-Aldrich (Saint Louis, MO) and solubilized in redistilled ethanol under nitrogen atmosphere and stored at −20° C.
Urban air particulate matter and fine particulate matter were purchased from Sigma-Aldrich (SRM 1648a), catalog #: NIST1648a3110 and NIST27863110. The mean particle diameters were 5.85 and 2.8 μm, respectively.
PECs were pre-treated with EPA (40 μM) for 2 hours in 2% FBS-containing medium and then challenged with urban particulate matter (50 μg/mL) for 2 hours. After 2 hours, media was washed out and HBSS buffer was added. After incubation, cells were pelleted and frozen at −80° C. until proteomic analysis was performed. Relative protein expression levels among the various treatments were measured using LC/MS proteomic techniques (FIG. 40).
Cell pellets were lysed using methanol/chloroform extraction. Proteins were then denatured, reduced, alkylated, and trypsin digested. Samples were labeled by Tandem Mass Tag (TMT) 10plex labeling to multiplex the samples and ensure that the injection, LC, and MS conditions are identical for each sample. A bicinchoninic acid (BCA) assay was performed to quantify the total protein in each sample. Each peptide in a sample was given a unique, low molecular weight (typically 126-130 Da), and then the samples were combined.
Each multiplexed sample was then fractionated to increase the overall protein coverage using high pH reversed phase fractionation and analyzed by LC/MS using a Dionex UltiMate 3000 RSLC in tandem with a Q-Exactive/Lumos Orbitrap Mass Spectrometer.
A ComBat function was applied to all mass spectrometry intensity data to correct for batch effects. The bioinformatic package Differential Enrichment analysis of Proteomics data (DEP) was used to process proteomic data and generate the figures.

[2] = tested on: vascular endothelial cells; experiment: IL-6 provoked-inflammation cell culture, proteomics; conditions: vascular endothelial cells provoked with IL-6
Description: (§1) FIG. 34B presents results from a provoked-inflammation cell-culture study with proteomics outcomes, wherein endothelial cells from various tissues were exposed to the inflammatory cytokine IL-6 in the absence or presence of EPA. […] Also of interest are related increases in proteins involved in the related antioxidant ferritin in vascular endothelial cells. Finally fatty acid desaturase 1 (FADS1) encodes the Δ5-desaturase enzyme and fatty acid desaturase 2 (FADS2) encodes the […] enzyme.
(§2) In a series of tissue culture experiments cells were provoked with IL-6 to induce an inflammatory and cellular injury response, and EPA added to determine whether it moderated proteins involved in injury responses. […] Thus, the proteomics results not only affirm the ability of EPA to promote HO-1, but also confirm the ability of EPA to inhibit […], corroborating the aforementioned ability of EtEPA to suppress the Δ5-desaturase index, for example.

[3] = tested on: brain endothelial cells; experiment: as above; conditions: brain endothelial cells provoked with IL-6
Description: as §1, §2

[4] = tested on: pulmonary endothelial cells; experiment: as above; conditions: pulmonary endothelial cells provoked with IL-6
Description: as §1, §2

[5] = tested on: Human umbilical vein endothelial cells (HUVECs); experiment: LC/MS proteomics of HUVECs treated with EPA or DHA and challenged with IL-6; conditions: for number of proteins whose expression was significantly repressed / number of proteins whose expression was significantly stimulated: compared with IL-6 alone
Protocol: Human umbilical vein endothelial cells (HUVECs) were isolated into primary cultures from female donors by Clonetics (San Diego, California) and purchased as proliferating cells. All cell culture donors were healthy, with no pregnancy or prenatal complications. The cultured cells were incubated in 95% air/5% CO2 at 37° C. and passaged by an enzymatic (trypsin) procedure. The confluent cells (4 to 5×10^5 cells/35 mm dish) were placed with minimum essential medium containing 3 mM L-arginine and 0.1 mM BH4 [(6R)-5,6,7,8-tetrahydrobiopterin]. Before experimental use, the cells (from second or third passage) were rinsed twice with Tyrode-HEPES buffer with 1.8 mM CaCl2).
EPA and DHA were purchased from Sigma-Aldrich (St. Louis, MO) and prepared initially in redistilled ethanol. Primary and secondary stock solutions were prepared and stored under nitrogen at −20° C.
HUVECs were treated with vehicle, EPA, or DHA (10 μM) for 2 hours, and then challenged with IL-6 (12 ng/mL) for 24 h hours. After incubation, cells were pelleted and frozen at −80° C. until proteomic analysis was performed.
Relative protein expression levels among the various treatments were measured using LC/MS proteomic techniques. Following protein digest, peptides are separated over a reverse phase column and then identified based on their mass.
Cell pellets were lysed using methanol/chloroform extraction. Proteins were denatured, reduced, alkylated, and trypsin digested. Samples were then prepared for Tandem Mass Tag (TMT) 10plex labeling. A bicinchoninic acid (BCA) assay was performed on each sample to quantify the total protein in each sample, which is important to confirm equal amounts of each sample are added to the multiplex sample. Each peptide in a sample was given a unique, low molecular weight (typically 126-130 Da), and then the samples were combined.
Each multiplexed sample was then fractionated to increase the overall protein coverage using high pH reversed phase fractionation and analyzed by LC/MS using a Dionex UltiMate 3000 RSLC in tandem with a Q-Exactive/Lumos Orbitrap Mass Spectrometer. The chromatography was performed using a 2-hour gradient on a Thermo Pepmap C18 column (100 Å pore size, 3.0 μm particle size, […]) set at 50° C. Mobile phase A was water with 0.1% formic acid, and mobile phase B was acetonitrile with 0.1% formic acid.
A bioinformatic package was applied to all the mass spectrometry intensity data known as Differential Enrichment analysis of Proteomics data (DEP) to process proteomic data (FIGS. 35-37).

[6] = 10 μM for 2 hours, then IL-6 (12 ng/mL) 24 h, vs IL-6 alone

CC/C=C\C/C=C\C/C=C\C/C=C\C/C=C\CCCC(=O)O [EPA, eicosapentaenoic acid]
number of proteins with significantly modulated expression ([1]; EPA (40 μM) relative to fine PMs): 205 proteins | number of proteins with significantly modulated expression ([1]; EPA (40 μM) relative to urban PMs): 347 proteins | # of Proteins Decreased Expression by Treatment, Neutrophil Degranulation Pathway (GO: 0043312) ([1]; Fine PM vs EPA + Fine PM): 11 | # of Proteins Increased Expression by Treatment, Neutrophil Degranulation Pathway (GO: 0043312) ([1]; Fine PM vs EPA + Fine PM): 11 | # of Proteins Decreased Expression by Treatment, Neutrophil Degranulation Pathway (GO: 0043312) ([1]; Urban PM vs EPA + Urban PM): 19 | # of Proteins Increased Expression by Treatment, Neutrophil Degranulation Pathway (GO: 0043312) ([1]; Urban PM vs EPA + Urban PM): 16 | number of proteins associated with neutrophil degranulation modulated by EPA treatment ([1]; compared to fine PMs): 22 proteins | number of proteins associated with neutrophil degranulation modulated by EPA treatment ([1]; compared to urban PMs): 35 proteins | HO-1 protein, EPA+IL-6 vs IL-6 alone [2]: 2.2 fold | HO-1 protein, EPA+IL-6 vs IL-6 alone [3]: 1.5 fold | HO-1 protein, EPA+IL-6 vs IL-6 alone [4]: 1.9 fold | DDAH-1 protein change [5, 6]: 1.1-fold increase, | DDAH-2 protein change [5, 6]: 1.1-fold increase, | GSR protein change [5, 6]: 1.1-fold increase, | PRDX1 protein change [5, 6]: 1.1-fold increase, | PRDX2 protein change [5, 6]: 1.1-fold increase, | PRDX5 protein change [5, 6]: 1.1-fold increase, | TXN protein change [5, 6]: 1.2-fold increase, | number of proteins whose expression was significantly repressed [5]: 472 proteins | number of proteins whose expression was significantly stimulated [5]: 544 proteins

CC/C=C\C/C=C\C/C=C\C/C=C\C/C=C\C/C=C\CCC(=O)O [DHA, docosahexaenoic acid]
GSR protein change [5, 6]: 1.2-fold increase, | PRDX1 protein change [5, 6]: 1.1-fold increase, | PRDX3 protein change [5, 6]: 1.1-fold increase, | PRDX4 protein change [5, 6]: 1.5-fold increase | PRDX5 protein change [5, 6]: 1.1-fold increase, | PRDX6 protein change [5, 6]: 1.3-fold decrease | TXN protein change [5, 6]: 1.2-fold increase, | number of proteins whose expression was significantly repressed [5]: 767 proteins | number of proteins whose expression was significantly stimulated [5]: 864 proteins
